Experimental data from patent US20210330661A1 (China Medical University, priority 2020, published 2021).
Like-named read-outs stand apart in the source and are kept apart here.

How the values were obtained:
[1] = biological target: T1, SARS-CoV-2 M^pro (Severe acute respiratory syndrome coronavirus 2, UniProt P0DTD1); assay: FRET assay of SARS-CoV-2 Mpro activity with boceprevir or narlaprevir; format: biochemical; conditions: 50 μM drug; 1 μM Mpro; FIG. 6; read-out: inhibitory effect on SARS-CoV-2 Mpro activity
[2] = biological target: T1, SARS-CoV-2 M^pro; format: binding; conditions: various concentrations; FIG. 2A, 2B
[3] = biological target: T1, SARS-CoV-2 M^pro; assay: FRET assay of SARS-CoV-2 Mpro activity with tafenoquine or hydroxychloroquine; format: biochemical; conditions: FIG. 1
[4] = biological target: T1, SARS-CoV-2 M^pro; assay: Soluble fraction / stability of Mpro in presence of drug; conditions: concentration up to 500 μM; FIG. 4
[5] = biological target: T1, SARS-CoV-2 M^pro; assay: Limited proteolysis assay by trypsin digestion; conditions: drug 0, 30, 60, 90 μM; FIG. 5A, 5B
Description: To further probe the conformational changes of SARS-CoV-2 M^pro, the limited proteolysis assay by trypsin digestion is performed. […] Proteolysis is performed by mixing SARS-CoV-2 M^pro (0.8 mg/ml) with trypsin at a protease-to-protein ratio of 1:10 (w/w) in a reaction buffer (25 mM Tris at pH 8.0, 150 mM NaCl) at 37° C. for 30 minutes. The reaction is stopped by adding SDS sample loading buffer and boiling at 95° C. for 10 minutes and subjected to SDS-PAGE (4%-20%).

[6] = system: SARS-CoV-2 (strain NTU02) in Vero E6 cells; format: cell-based; conditions: pre-treated cells, various concentrations; compared to DMSO control; 3-day post infection; FIG. 14
[7] = system: SARS-CoV-2 (strain NTU02) in Vero E6 cells; format: cell-based; conditions: pre-treatment, 48 hours, MOI 0.0003, FIG. 13
[8] = system: SARS-CoV-2 (strain NTU02) in Vero E6 cells; assay: microbe, parasite or virus in culture; format: cell-based
[9] = system: SARS-CoV-2 (strain NTU02) in Vero E6 cells; format: cell-based; conditions: 5 μM; compared with DMSO; 3-day post infection; FIG. 12

CC(C)(C)NC(=O)N[C@H](C(=O)N1C[C@H]2[C@@H]([C@H]1C(=O)NC(CC1CCC1)C(=O)C(N)=O)C2(C)C)C(C)(C)C (some centres unmarked) [boceprevir]
inhibition at 50 µM [1]: 76.5 ± 4.8%

CCN(CCO)CCCC(C)Nc1ccnc2cc(Cl)ccc12 (centres unmarked) [hydroxychloroquine]
shift in melting temperature / thermal stability of Mpro [2]: no influence on the thermal stability | inhibitory effect on SARS-CoV-2 Mpro ([3]; various concentrations): does not demonstrate any significant inhibitory effects | stability of Mpro [4]: does not influence the stability | cleavage of Mpro by trypsin [5]: no concentrations of hydroxychloroquine tested reduce the cleavage

CCCC[C@H](NC(=O)[C@@H]1[C@@H]2[C@H](CN1C(=O)[C@@H](NC(=O)NC1(CS(=O)(=O)C(C)(C)C)CCCCC1)C(C)(C)C)C2(C)C)C(=O)C(=O)NC1CC1 [narlaprevir]
cytopathic effect induced by SARS-CoV-2 infection [6]: significantly lesser | inhibition rate against viral RNA production ([7]; 40 μM narlaprevir): approximately 76.4% | inhibition at 50 µM [1]: 64.1 ± 2.5%

CCC(CC)COC(=O)[C@H](C)N[P@](=O)(OC[C@H]1O[C@@](C#N)(c2ccc3c(N)ncnn23)[C@H](O)[C@@H]1O)Oc1ccccc1 [remdesivir]
inhibition rate against viral RNA production ([7]; 1 μM remdesivir): ~26.3%

COc1cc(C)c2c(Oc3cccc(C(F)(F)F)c3)c(OC)cc(NC(C)CCCN)c2n1 (centres unmarked) [tafenoquine]
inhibition at 90 µM ([3]; 90 μM, 4 μM Mpro, read-out: inhibition against SARS-CoV-2 Mpro): ~90% | viral RNA versus DMSO-treated group ([8]; 2.5 μM, day not given, FIG. 10): no significant difference | yield of viral RNA in cell supernatant ([8]; Day 1 to Day 2 after infection, FIG. 10): significantly represses | EC50 ([8]; Severe acute respiratory syndrome coronavirus 2, Vero C1008, 48 h, read-out: half maximal effective concentration (EC50)): ~2500 nM | SARS-CoV-2-induced cytopathic effect [9]: significant decrease
